Laboratory results reported in paper PMC12615753, “Glutathione as a taste modulator: molecular mechanisms of interaction with umami and sweet taste receptors” (Food Chemistry: Molecular Sciences, 2025).

Biological target: T1, hTAS1R1 H71A/rTAS1R3 (UniProt Q7RTX1+Q923K1, H71A)
T1 construct: The cDNA coding region of rTAS1R3 was synthesized with optimized-codon usage for human expression; expressed in transfected cells; host or cells: HEK293T/17
T1 sequence (Q7RTX1 21-841 H71A): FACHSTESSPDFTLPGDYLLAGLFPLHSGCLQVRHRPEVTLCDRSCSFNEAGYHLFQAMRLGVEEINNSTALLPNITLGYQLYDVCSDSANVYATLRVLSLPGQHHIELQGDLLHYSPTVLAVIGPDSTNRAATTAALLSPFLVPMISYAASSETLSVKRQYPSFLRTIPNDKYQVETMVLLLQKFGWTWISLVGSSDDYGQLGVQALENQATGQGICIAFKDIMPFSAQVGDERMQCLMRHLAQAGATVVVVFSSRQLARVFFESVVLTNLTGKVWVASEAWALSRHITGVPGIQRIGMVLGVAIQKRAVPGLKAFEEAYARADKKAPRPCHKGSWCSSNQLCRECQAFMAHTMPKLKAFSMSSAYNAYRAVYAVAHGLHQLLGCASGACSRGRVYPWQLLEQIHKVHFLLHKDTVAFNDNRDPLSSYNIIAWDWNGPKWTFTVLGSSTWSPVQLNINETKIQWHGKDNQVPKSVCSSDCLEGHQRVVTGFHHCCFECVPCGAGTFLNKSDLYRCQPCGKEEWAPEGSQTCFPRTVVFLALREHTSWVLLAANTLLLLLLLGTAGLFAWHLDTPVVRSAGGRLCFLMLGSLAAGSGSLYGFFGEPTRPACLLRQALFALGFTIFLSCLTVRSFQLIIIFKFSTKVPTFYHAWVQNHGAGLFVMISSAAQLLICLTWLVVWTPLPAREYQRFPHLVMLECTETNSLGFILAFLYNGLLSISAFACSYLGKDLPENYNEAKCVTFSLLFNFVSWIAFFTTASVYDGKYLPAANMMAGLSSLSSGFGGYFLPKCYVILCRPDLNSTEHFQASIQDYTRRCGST
T1 sequence (Q923K1 21-858): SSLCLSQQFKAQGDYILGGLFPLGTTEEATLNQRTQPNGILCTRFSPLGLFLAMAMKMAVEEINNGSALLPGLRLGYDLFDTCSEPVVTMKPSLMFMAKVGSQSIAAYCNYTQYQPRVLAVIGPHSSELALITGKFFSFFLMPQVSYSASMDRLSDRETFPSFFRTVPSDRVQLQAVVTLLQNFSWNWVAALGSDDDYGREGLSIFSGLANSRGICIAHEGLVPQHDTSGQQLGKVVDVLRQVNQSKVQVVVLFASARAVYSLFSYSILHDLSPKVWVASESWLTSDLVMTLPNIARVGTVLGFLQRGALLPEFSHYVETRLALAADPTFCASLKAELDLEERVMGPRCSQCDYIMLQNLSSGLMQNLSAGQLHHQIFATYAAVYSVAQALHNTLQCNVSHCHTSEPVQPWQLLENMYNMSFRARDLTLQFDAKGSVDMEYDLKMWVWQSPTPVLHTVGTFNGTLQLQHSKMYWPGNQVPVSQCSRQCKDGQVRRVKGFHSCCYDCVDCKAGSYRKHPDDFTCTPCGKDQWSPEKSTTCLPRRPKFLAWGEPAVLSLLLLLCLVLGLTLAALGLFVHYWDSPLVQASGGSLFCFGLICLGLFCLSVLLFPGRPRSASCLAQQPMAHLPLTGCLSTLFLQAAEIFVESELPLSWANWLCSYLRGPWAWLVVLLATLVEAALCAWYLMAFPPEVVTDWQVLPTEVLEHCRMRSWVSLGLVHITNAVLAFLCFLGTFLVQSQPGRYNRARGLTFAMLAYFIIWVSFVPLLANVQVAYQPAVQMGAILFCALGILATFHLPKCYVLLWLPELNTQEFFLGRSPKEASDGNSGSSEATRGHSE
Assay: Calcium assay, hTAS1R1 mutant co-expressed with rTAS1R3
Assay type: cell-based, human, rat

Row | Structure (SMILES) | EC50 [µM] | effect of the added compound (1 mM) on the response to L-Glu (H71A) | Max ∆F/F0 (H71A, GSH) | R1 = mutant EC50/WT EC50 (H71A, GSH) | response to the agonist alone, vs WT (H71A)
1 | N[C@@H](CCC(=O)N[C@@H](CS)C(=O)NCC(=O)O)C(=O)O [GSH, γ-L-glutamyl-L-cysteinyl-glycine] | 2030 ± 416 | did not affect | 0.44 ± 0.03 | 0.8 | 
2 | CCCC(CCC)NC(=O)c1ccc2c(c1)OCO2 [S807, N-(heptan-4-yl)benzo[d][1,3]dioxole-5-carboxamide, reference compound] |  |  |  |  | strongly affected
